Our source for the absorption maximum values is the Deep4Chem optical property database.

The nature of this series: solvent given as SMILES.

Structures are written as SMILES.

Take `c1cc2c([nH]c3c4[nH]c5sccc5c4c4nsnc4c23)s1`: the absorption maximum reads like this: (in C1CCOC1) 420 nm; (in CCOC(C)=O) 414 nm; (in CN(C)C=O) 423 nm; (in Cc1ccccc1) 411 nm; (in ClCCl) 415 nm.

`CC1(C)C(/C=C/C2=C(Oc3ccc(CCN=C=S)cc3I)C(=C/C=C3/N(CCCS(=O)(=O)[O-])c4ccccc4C3(C)C)/CCC2)=[N+](CCCS(=O)(=O)[O-])c2ccccc21` registered an absorption maximum (in CO) of 766 nm.

On to `N#Cc1c(-n2c3ccccc3c3ccccc32)cc(N2c3ccccc3C(c3ccccc3)(c3ccccc3)c3ccccc32)cc1-n1c2ccccc2c2ccccc21`, for which, for the setting “in Cc1ccccc1”, the absorption maximum came to 368 nm.

Take `CCCCCCc1cc2c3c(c1)c(=C1c4ccccc4Sc4ccccc41)c1cc(CCCCCC)cc4c1N3c1c(cc(CCCCCC)cc1c4=C1c3ccccc3Sc3ccccc31)c2=C1c2ccccc2Sc2ccccc21`: the absorption maximum (in ClCCl) is 430 nm.

In the case of `CCCCCCCCOc1cc(/C=C/c2cc[n+](Cc3ccc(C)cc3)cc2)c(OCCCCCCCC)cc1/C=C/c1cc[n+](Cc2ccc(C)cc2)cc1`, the absorption maximum (in ClCCl) amounted to 490 nm.

Under “in ClCCl”, `CC(C)(C)c1ccc(N(c2ccc(C(C)(C)C)cc2)c2ccc3c(N(c4ccc(C(C)(C)C)cc4)c4ccc(C(C)(C)C)cc4)cc4c5cc(N(c6ccc(C(C)(C)C)cc6)c6ccc(C(C)(C)C)cc6)ccc5c(N(c5ccc(C(C)(C)C)cc5)c5ccc(C(C)(C)C)cc5)cc4c3c2)cc1` returned an absorption maximum of 433 nm.

On to `c1ccc2c([SiH](c3c4ccccc4cc4ccccc34)c3c4ccccc4cc4ccccc34)c3ccccc3cc2c1`, for which the absorption maximum (in ClC(Cl)Cl) is 401 nm.

Take `Ic1ccc(-c2c3ccc(=[N+]4CCCCC4)cc-3oc3cc(N4CCCCC4)ccc23)cc1`: the absorption maximum by setting is: (in CCO) 568 nm; (in ClCCl) 570 nm.

For the setting “in Cc1ccccc1”, `CCCC1=Cc2nc1ccc1[nH]c(cc1CCC)c1nc(c(OC(=O)CCCC(=O)OC(C)(C)C)cc3[nH]c2cc3CCC)C(CCC)=C1` gave an absorption maximum of 645 nm.

As to `CC(C)c1ccc2ccc3cccc4ccc1c2c34`, the absorption maximum (in CCCCCC) is on record as 338 nm, the absorption maximum (in CO) is recorded as 337 nm and the absorption maximum (in ClCCl) is 340 nm.

On to `CC(=O)Nc1ccc(S(=O)(=O)O)c(/N=N/c2c(O)c3ccccc3n(C)c2=O)c1`, for which the absorption maximum by setting is: (in C1CCOC1) 435 nm; (in CC(C)=O) 425 nm; (in CCOC(C)=O) 434 nm; (in CO) 423 nm; (in CS(C)=O) 428 nm; (in Cc1ccccc1) 437 nm. Further, the absorption maximum was 435 nm (in ClCCl) and 417 nm (in O).

As to `COC(=O)c1ccc(/C=C2\C=C(c3ccccc3)OC2=O)cc1`, the absorption maximum (in C1COCCO1) was 401 nm.

Compound `Cc1cc(-c2ccc(C(C)(C)C)cc2)c2nsnc2c1-c1ccc(N(c2ccccc2)c2ccccc2)cc1` showed an absorption maximum (in ClCCl) of 402 nm.

`CN(C)c1ccc(-c2cc(-c3ccc(N(C)C)cc3)ncn2)cc1` came in with an absorption maximum (in ClCCl) of 378 nm.

`Brc1ccc(N(c2ccc(/C=C/c3ccncn3)cc2)c2ccc(/C=C/c3ccncn3)cc2)cc1`: the absorption maximum (in ClCCl) stood at 417 nm.

Where the note is “in O”, `CN(C)c1ccc2c(c1)C(C)(C)C(=O)C=C2` showed an absorption maximum of 413 nm.

Compound `Cc1cc(C)c(C)c(-c2ccc3cc(C)c(=O)oc3c2)c1C` displayed an absorption maximum (in C1CCCCC1) of 312 nm, an absorption maximum (in CC#N) of 314 nm and an absorption maximum (in CO) of 315 nm.

As to `CCC1=C(C)C2=C(C)c3cccn3[B-](F)(F)[N+]2=C1C`, the absorption maximum was found to be 504 nm (in C1CCCCC1); 495 nm (in CC(C)=O); 497 nm (in CCO); 496 nm (in CCOC(C)=O); 495.5 nm (in CO); 492 nm (in OCC(F)(F)F).

Compound `O=c1oc2ccccc2cc1/C=C/c1ccc([N+](=O)[O-])cc1` returned an absorption maximum (in CC#N) of 371 nm.

With `O=C1C=C(Nc2ccccc2)CCC1`, the absorption maximum came to 295 nm (in C1CCCCC1); 302 nm (in C1CCOC1); 302 nm (in C1COCCO1); 295 nm (in CC1CCCCC1); 307 nm (in CC#N); 307 nm (in CC(C)O). The same compound came in with an absorption maximum (in CCO) of 307 nm; an absorption maximum (in CCOC(C)=O) of 301 nm; an absorption maximum (in CCOCC) of 296 nm; an absorption maximum (in CN(C)C=O) of 306 nm; an absorption maximum (in CO) of 305 nm; an absorption maximum (in CS(C)=O) of 307 nm. For the same compound, the absorption maximum runs as follows: (in ClC(Cl)(Cl)Cl) 299 nm; (in ClC(Cl)Cl) 303 nm; (in O) 306 nm.

Consider `CC[N+]1=C(/C=C/C=C/C=C/C=C2/N(CCCCCC(=O)O)c3ccccc3C2(C)C)C(C)(C)c2cc(S(=O)(=O)[O-])ccc21`, for which the absorption maximum is, setting by setting: (in CO) 751 nm; (in O) 745 nm.

As for `CN1c2ccc(C(=O)c3ccccc3)cc2Sc2cc(C(=O)c3ccccc3)ccc21`, the absorption maximum (in C1CCCCC1) worked out at 390 nm; the absorption maximum (in C1CCOC1) is listed as 402 nm; the absorption maximum (in CN(C)C=O) was 407 nm; the absorption maximum (in Cc1ccccc1) was found to be 405 nm; the absorption maximum (in ClC(Cl)Cl) is given as 407 nm; the absorption maximum (in ClCCl) came out at 408 nm.

In the case of `Cc1cccc2nc3c(=O)[nH]c(=O)[nH]c3nc12`, the absorption maximum reads like this: (in C1COCCO1) 379 nm; (in CC#N) 379 nm; (in CCO) 381 nm; (in CO) 382 nm; (in ClCCCl) 380 nm; (in O) 386 nm.

Regarding `CCCCn1c2ccccc2c2c1c1c3ccccc3n(CCCC)c1c1c3ccccc3n(CCCC)c21`, the absorption maximum (in C1CCOC1) is 316 nm.

For `CCCCC(CC)CN1C(=O)c2cccc3c(C#Cc4ccc(N(c5ccc(C#Cc6ccc7c8c(cccc68)C(=O)N(CC(CC)CCCC)C7=O)cc5)c5ccc(C#Cc6ccc7c8c(cccc68)C(=O)N(CC(CC)CCCC)C7=O)cc5)cc4)ccc(c23)C1=O` (stereo not drawn), the absorption maximum reads like this: (in C1CCCCC1) 444 nm; (in C1CCOC1) 447 nm; (in CC#N) 454 nm; (in Cc1ccccc1) 446 nm; (in ClC(Cl)Cl) 453 nm.

For the setting “in CCO”, `CC(C)(C)Nc1cc2sc3cc(NC(C)(C)C)c(F)cc3c(=O)c2cc1F` yielded an absorption maximum of 373 nm.

On to `F[B-]1(F)Oc2ccccc2-c2c3c(c4c([n+]21)CCc1ccccc1-4)CCc1ccccc1-3`, for which the absorption maximum (in ClCCl) is 347 nm.

`Cn1cccc1-c1cc(C#N)ccc1C#N`: the absorption maximum stood at 370 nm (in C1CCOC1); 359 nm (in CC#N); 366 nm (in CCCCCC); 370 nm (in CCCCOCCCC); 364 nm (in CCOCC).

For `F[B-]1(F)OC(C#Cc2ccccc2)=CC(c2ccccc2)=[O+]1`, the absorption maximum (in ClCCl) worked out at 401 nm.

`CC(C)(C)c1ccc(Oc2cc3c4c(cc(Oc5ccc(C(C)(C)C)cc5)c5c6c(Oc7ccc(C(C)(C)C)cc7)cc7c8c(cc(Oc9ccc(C(C)(C)C)cc9)c(c2c45)c86)C(=O)N(c2ccccc2)C7=O)C(=O)N(c2ccccc2)C3=O)cc1` had an absorption maximum (in ClC(Cl)Cl) of 586 nm.

As for `F[B-]1(F)OC(c2ccc3c(c2)Cc2ccccc2-3)=CC(c2ccccc2)=[O+]1`, where the note is “in CC#N”, the absorption maximum is given as 412 nm.

Compound `CCc1c(C)c2n(c1C)[B-](F)(F)[N+]1=C(c3ccc[nH]3)c3ccccc3C1=C2` had an absorption maximum (in C1CCOC1) of 613 nm; an absorption maximum (in CC#N) of 608 nm; an absorption maximum (in CCCCCC) of 614 nm; an absorption maximum (in CO) of 609 nm; an absorption maximum (in Cc1ccccc1) of 620 nm; an absorption maximum (in ClCCl) of 616 nm.

Where the note is “in CC(C)(C)c1ccc(-n2c3ccc([Si](c4ccccc4)(c4ccccc4)c4ccccc4)cc3c3cc([Si](c4ccccc4)(c4ccccc4)c4ccccc4)ccc32)cc1”, `Cc1c(C)c(N2c3ccccc3Oc3ccccc32)c(C)c(C)c1B(c1c(C)c(C)c(N2c3ccccc3Oc3ccccc32)c(C)c1C)c1c(C)c(C)c(N2c3ccccc3Oc3ccccc32)c(C)c1C` displayed an absorption maximum of 398 nm.

With `COc1cc(N(c2ccccc2)c2ccc(C=C(C#N)C#N)c(OC)c2)ccc1C=C(C#N)C#N`, the absorption maximum runs as follows: (in C1COCCO1) 464 nm; (in CC#N) 477 nm; (in CC(C)=O) 470 nm; (in CCOC(C)=O) 468 nm; (in CN(C)C=O) 469 nm; (in CO) 471 nm. Moreover, the absorption maximum is given as 471 nm (in Cc1ccccc1), 480 nm (in ClC(Cl)Cl) and 479 nm (in ClCCl).

With `CCCCN1C(=O)C2=C(c3ccc(Br)cc3)[N-]C(=O)C2=C1c1ccc(Br)cc1`, where the note is “in ClCCl”, the absorption maximum was 571 nm.

In the case of `CCC1=C(C)C2=Cc3cc(I)cn3[B-](F)(F)[N+]2=C1C`, the absorption maximum runs as follows: (in C1CCCCC1) 528 nm; (in CC(C)=O) 509.5 nm; (in CCO) 514 nm; (in CCOC(C)=O) 513 nm; (in CO) 511.5 nm; (in OCC(F)(F)F) 504 nm.

`Clc1ccc(-c2nc(-c3ccccc3)sc2N(c2ccccc2)c2ccccc2)cc1` had an absorption maximum (in ClC(Cl)Cl) of 366 nm.

Take `N#Cc1ccccc1N1c2sc3ccccc3c2Sc2c1sc1ccccc21`: under “in ClCCl”, the absorption maximum was 411 nm.

Where the note is “in ClCCl”, `CC(C)(C)c1ccc(C#Cc2c(C#Cc3ccc(C(C)(C)C)cc3)c3cccc4c(C#Cc5ccc(C(C)(C)C)cc5)c(C#Cc5ccc(C(C)(C)C)cc5)c5cccc2c5c34)cc1` gave an absorption maximum of 410 nm.

For the compound `CC1=[N+]2C(=C(C3=CC4OCCOCCOCCOCCOC4C=C3)c3c4ccccc4c(/C=C/c4ccc(N(C)C)cc4)n3[B-]2(F)F)c2ccccc21` (stereo not drawn), the absorption maximum (in CC#N) is listed as 693 nm.

Regarding `CCn1c(-c2ccc(-c3ccc4c(c3)C(c3ccccc3)(c3ccccc3)c3ccccc3-4)cc2)c(-c2ccc3ccccc3c2)c(-c2ccc3ccccc3c2)c1-c1ccc(-c2ccc3c(c2)C(c2ccccc2)(c2ccccc2)c2ccccc2-3)cc1`, the absorption maximum (in CCOC(C)=O) came out at 325 nm.
